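Exposure lasted 48 hours, with cells grown in 96-well plates and compounds tested at five concentrations. GI50 = concentration required for 50% inhibition of growth.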 Active and inactive are the calls of the source. Rule as the data show it: active = GI50 up to about 1.1 µM and inactive = higher.
Key:
Assay in all cases: NCI-60 cell line screen, 48 h
SF-295 = test system: SF-295
KM12 = test system: KM12
SR = test system: SR
LOX IMVI = test system: LOX IMVI
UACC-257 = test system: UACC-257
OVCAR-8 = test system: OVCAR-8
U-251 = test system: U-251
CAKI-1 = test system: CAKI-1
Malme-3M = test system: Malme-3M
TK-10 = test system: TK-10
IGROV-1 = test system: IGROV-1
SF-539 = test system: SF-539
COLO 205 = test system: COLO 205
A498 = test system: A498
786-0 = test system: 786-0
SNB-19 = test system: SNB-19
MDA-MB-435 = test system: MDA-MB-435
NCI-H522 = test system: NCI-H522
SN12C = test system: SN12C
Hs-578T = test system: Hs-578T

Measured: GI50

Nc1nc(SCc2ccccc2[N+](=O)[O-])c2[nH]cnc2n1
inactive: SF-295 > 67.6 µM | KM12 > 57.7 µM | SR > 51.6 µM | LOX IMVI > 53.3 µM | UACC-257 > 40.1 µM | OVCAR-8 > 52.8 µM | U-251 > 61.9 µM | CAKI-1 38.7 µM | Malme-3M > 30.6 µM | TK-10 > 34.8 µM | IGROV-1 > 38 µM | SF-539 > 100 µM | COLO 205 > 45 µM | A498 18.6 µM | 786-0 > 65.2 µM | SNB-19 > 83.2 µM | MDA-MB-435 36 µM | NCI-H522 > 31.8 µM | SN12C > 57.1 µM | Hs-578T 1.93 µM

O=C1C(Br)=C(Br)C(=O)c2ccc(=O)ccc21
inactive: SF-295 33.2 µM | KM12 46.8 µM | SR 26.1 µM | LOX IMVI 20.6 µM | UACC-257 24.7 µM | OVCAR-8 22.3 µM | U-251 38.3 µM | CAKI-1 28.3 µM | Malme-3M 19.9 µM | TK-10 18.7 µM | IGROV-1 > 52.2 µM | SF-539 24.7 µM | COLO 205 13.3 µM | A498 > 100 µM | 786-0 18.3 µM | SNB-19 > 100 µM | MDA-MB-435 18.7 µM | NCI-H522 2.67 µM | SN12C 19.1 µM | Hs-578T 26.4 µM

CCOP(=O)(OCC)/C(C#N)=C\c1cccc2ccccc12
inactive: SF-295 60.1 µM | KM12 > 74.8 µM | SR 31.8 µM | LOX IMVI 20.9 µM | UACC-257 71.3 µM | OVCAR-8 > 45.7 µM | U-251 > 67.5 µM | CAKI-1 74.3 µM | Malme-3M 42.7 µM | TK-10 > 100 µM | IGROV-1 > 82.4 µM | SF-539 > 56 µM | COLO 205 91.8 µM | A498 44.5 µM | 786-0 > 71.4 µM | SNB-19 > 57.1 µM | MDA-MB-435 34.7 µM | NCI-H522 > 88.1 µM | SN12C 82.4 µM | Hs-578T 20.2 µM

Oc1c2ccccc2c2c3c(cccc13)N=N2 [SP-600125]
inactive: SF-295 22.5 µM | KM12 2.62 µM | SR 13.1 µM | LOX IMVI 12.8 µM | UACC-257 29.5 µM | OVCAR-8 22 µM | U-251 23.1 µM | CAKI-1 3.56 µM | Malme-3M 16.4 µM | TK-10 5.93 µM | IGROV-1 11.4 µM | SF-539 32.2 µM | COLO 205 19.5 µM | A498 7.03 µM | 786-0 27.1 µM | SNB-19 50 µM | MDA-MB-435 12.8 µM | NCI-H522 12.2 µM | SN12C 14.8 µM | Hs-578T 55.1 µM

CCCNc1ncnc2[nH]ncc12
inactive: SF-295 > 100 µM | KM12 > 100 µM | SR > 100 µM | LOX IMVI > 100 µM | UACC-257 > 100 µM | OVCAR-8 > 100 µM | U-251 > 100 µM | CAKI-1 > 100 µM | Malme-3M > 100 µM | TK-10 > 100 µM | IGROV-1 > 100 µM | SF-539 > 100 µM | COLO 205 > 100 µM | A498 > 100 µM | 786-0 > 100 µM | SNB-19 > 100 µM | MDA-MB-435 > 100 µM | NCI-H522 > 100 µM | SN12C > 100 µM | Hs-578T > 100 µM

CN1CCN(C(=O)CCC(=O)Nc2cc3c(c4ccccc24)-c2ccc4ccccc4c2C3)CC1
inactive: SF-295 1.71 µM | KM12 1.55 µM | SR 1.79 µM | LOX IMVI 1.77 µM | UACC-257 1.74 µM | OVCAR-8 2.18 µM | U-251 2.04 µM | CAKI-1 1.53 µM | Malme-3M 2.03 µM | TK-10 1.73 µM | IGROV-1 1.15 µM | SF-539 1.73 µM | COLO 205 1.6 µM | A498 13.8 µM | 786-0 1.69 µM | SNB-19 2.14 µM | MDA-MB-435 1.51 µM | NCI-H522 1.63 µM | SN12C 1.79 µM | Hs-578T 2.63 µM

O=C(O)c1nc2cc(Cl)ccc2[nH]c1=O
inactive: SF-295 > 100 µM | KM12 > 100 µM | SR > 100 µM | LOX IMVI > 100 µM | UACC-257 > 100 µM | OVCAR-8 > 100 µM | U-251 > 100 µM | CAKI-1 > 100 µM | Malme-3M > 100 µM | TK-10 > 100 µM | IGROV-1 > 100 µM | SF-539 > 100 µM | COLO 205 > 100 µM | A498 > 100 µM | 786-0 > 100 µM | SNB-19 > 100 µM | MDA-MB-435 > 100 µM | NCI-H522 > 100 µM | SN12C > 100 µM | Hs-578T > 100 µM

CCOC(=O)CC[C@H](NC(=O)[C@H](N)Cc1ccc(N(CCCl)CCCl)cc1)C(=O)OCC
inactive: SF-295 29.2 µM | KM12 16 µM | SR 1.91 µM | LOX IMVI 11.6 µM | UACC-257 11 µM | OVCAR-8 10.6 µM | U-251 16.8 µM | CAKI-1 4.65 µM | Malme-3M 3.61 µM | TK-10 > 54.5 µM | IGROV-1 40.6 µM | SF-539 9.66 µM | COLO 205 20.7 µM | A498 > 100 µM | 786-0 9.55 µM | SNB-19 27.6 µM | MDA-MB-435 26.9 µM | NCI-H522 4.53 µM | SN12C 14.2 µM | Hs-578T 22.3 µM

CN(C(=O)Cc1ccccc1)n1cn[n+](CC(=O)OC(C)(C)C)c1
inactive: SF-295 > 10 µM | KM12 > 10 µM | SR > 10 µM | LOX IMVI > 10 µM | UACC-257 > 10 µM | OVCAR-8 > 10 µM | U-251 > 10 µM | CAKI-1 > 10 µM | Malme-3M > 10 µM | TK-10 > 10 µM | IGROV-1 > 10 µM | SF-539 > 10 µM | COLO 205 > 10 µM | A498 > 10 µM | 786-0 > 10 µM | SNB-19 > 10 µM | MDA-MB-435 > 10 µM | NCI-H522 > 10 µM | SN12C > 10 µM | Hs-578T > 10 µM

COc1ccc(/N=N/C(=O)NC(CC(C)C)C(N)=O)cc1 (stereo not given)
inactive: SF-295 5.58 µM | KM12 5.27 µM | SR 5.64 µM | LOX IMVI 9.48 µM | UACC-257 23.6 µM | OVCAR-8 36.9 µM | U-251 > 100 µM | CAKI-1 > 31.6 µM | Malme-3M > 100 µM | TK-10 > 31.6 µM | IGROV-1 > 100 µM | SF-539 22.9 µM | COLO 205 15.3 µM | A498 > 31.6 µM | 786-0 > 31.6 µM | SNB-19 > 100 µM | MDA-MB-435 28.2 µM | NCI-H522 > 100 µM | SN12C > 31.6 µM | Hs-578T > 100 µM
